Entries after “also recorded” stand apart in the source; their conditions may differ. Read-outs that look alike come from different tables or passages of the source.
How the values were obtained:
[1] = test system: GR chromatin association in MDA-MB-231 cells; test: GR ChIP-sequencing and analysis; type: cell-based, human; settings: 100 nM each, 60 minutes, normalized to vehicle
Method: MDA-MB-231 cells were grown to 80% confluence in 15-cm dishes in DMEM with 10% FBS, followed by 48h in DMEM supplemented with 2.5% charcoal-stripped FBS. […] Cells were cross-linked with 1% formaldehyde, quenched with glycine (final concentration of […]), and harvested. After cell lysis with ChIP lysis buffer (Magna ChIP A Chromatin Immunoprecipitation Kit, EMD Millipore), cells were sonicated to achieve the majority of DNA fragments between 200-400 bp. Input samples were preserved at -80° C. […] Following manufacturer's protocol, chromatin was eluted from GR ChIP and input samples. Library build and sequencing was performed at the University of Oregon Genomics Core facility using the NextSeq 500 sequencer. Quality control on sequences and adapter sequencing trimming was performed using Kapa Biosystems Illumina Library Quantification Kit. ChIP-seq analysis was carried out using the Galaxy platform (usegalaxy.org (111)). […] GR peaks for each treatment were normalized to its own input control sample. […] Selected GR peak locations in hg19 and GR peak maps were also individually analyzed using Integrative Genomics Viewer, IGV (Broad Institute (116)).

SUM-159-PT cells = settings: Pac 10 nM, Dex 100 nM, C297 1 μM; 72 hours
Method: After compound treatment, cells were fixed in 10% trichloroacetic acid (TCA) at 4° C. overnight. […] Absorbance at λ=510 nm was measured, and relative percentage dead/alive cells was calculated based on minimal and maximal optical densities measured per plate. The experiment was performed in three biological replicates per cell line. P-values comparing the means of cell death percentages were obtained using the two-sample Student's t-test (Graphpad).

[2] = test system: GR-regulated gene expression in MDA-MB-231 cells; test: Gene expression microarray and analysis; type: cell-based, human
Method: MDA-MB-231 cells were grown to 80% confluence in 15-cm dishes in DMEM with 10% FBS. […] Following compound exposure, cells were washed in PBS, and lysed in RNA lysis buffer (Qiagen) overnight at -80° C. RNA extraction, with accompanying DNase treatment, was performed using the RNeasy kit (Qiagen) following the manufacturer's protocol. […] The University of Chicago Genomics Core facility carried out the reverse transcription on the samples, followed by microarray using the Affymetrix Human U133 Plus 2.0 platform. […] A principal components analysis (PCA) was performed using the prcomp function in R (Q-mode PCA using singular value decomposition). […] Dex-regulated genes were overlapped with a list of n=5,170 differentially-expressed tumor-derived genes (in the same direction) from GR-high versus GR-low BCs (52). Ingenuity Pathway Analysis (Qiagen) of the n=462 patient-relevant and antagonist-inhibited genes was performed to obtain Activation Z-scores of the most significant Diseases and Biofunctions (cell functions).

[3] = test system: MDA-MB-231 tumor xenograft; test: Murine TNBC xenograft, tumor re-growth after treatment; type: in vivo, SCID mice
Method: MDA-MB-231 tumors were established in the right pectoral mammary gland of n=23 five- or six-week old female SCID mice (Taconic). Tumor volume was measured by caliper and then calculated using the elliptical volume equation (43). […] Tumor volume was measured by caliper until reaching a volume of approximately 2000 mm^3 or 40 days post-treatment initiation. Tumor data were analyzed using the repeated measures ANOVA using SigmaPlot 11.2 (Systat Software), and p-values between treatment groups over time were obtained using the Holm-Sidak post-hoc test.
Next, we studied the in vivo effect of GR activity in paclitaxel-treated GR+TNBC-bearing female SCID mice (n=23). MDA-MB-231 xenograft tumors were established subcutaneously in the mammary fat pad of 6-week old female mice. […] The mice were treated daily for five days with intraperitoneally with C297 (or vehicle), one hour prior to paclitaxel. The one-hour pre-treatment of the GR modulator was intended to compete with endogenous GC (murine corticosterone and cortisol (68)) bound to the tumor cell GR LBD. The 5 sequential dosing was selected to mimic an intensive adjuvant chemotherapy schedule often used in early-stage TNBC. Following cessation of the 5d treatment, time to tumor xenograft re-growth was measured as a readout for time to relapse post-treatment (43, 46).

GR LBD = target: T1, GR LBD (Homo sapiens, UniProt P04150); test: Ligand titration assay via fluorescence polarimetry (displacement of F-Dex); type: binding; settings: for Fit of FP dose response curve (half-maximal FP signal): log(inhibitor) vs. normalized response, FIG. 7
T1 construct: The wild-type GR-LBD (amino acid residues 522-777) was cloned into a pFASTBAC plasmid; 6X-His (TEV-cleavable) (cleaved yes); made in house; host or cells: SF9 insect cells (baculovirus, pFASTBAC)
T1 sequence (P04150 522-777): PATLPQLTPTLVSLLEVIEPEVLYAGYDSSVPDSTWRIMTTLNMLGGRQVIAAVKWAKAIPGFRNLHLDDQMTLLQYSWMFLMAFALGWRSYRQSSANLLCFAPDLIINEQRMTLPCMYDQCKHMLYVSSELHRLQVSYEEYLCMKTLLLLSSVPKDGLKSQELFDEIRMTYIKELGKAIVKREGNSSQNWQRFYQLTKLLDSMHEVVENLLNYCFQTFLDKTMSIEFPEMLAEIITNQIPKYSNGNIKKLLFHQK
Method: SF9 insect cells were transfected with recombinant bacmid and virus (collected after 6 days) was amplified prior to protein expression. […] GR-LBD was purified first using Ni-affinity chromatography followed by overnight dialysis with TEV protease to remove the His tag. Extensive dialysis into 20 mM TRIS pH 8.0, 500 mM NaCl, 5% glycerol, 0.1% CHAPS, 0.25 mM TCEP was performed to obtain non-ligand-bound GR LBD. […] The purified proteins were concentrated to 5 mg/ml, flash frozen in 50 ul aliquots in N2(l), and stored at −80C.
GR LBD was diluted in assay buffer (20 mM TRIS pH 7.5, 50 mM NaCl, 0.25 mM TCEP) to a concentration of 50 nM. […] Triplicate FP measurements were scaled to maximal FP and averaged for each ligand concentration.

[4] = target: T2, mineralocorticoid receptor (Homo sapiens, UniProt P08235); settings: cited from earlier work
T2 sequence (P08235 1-984): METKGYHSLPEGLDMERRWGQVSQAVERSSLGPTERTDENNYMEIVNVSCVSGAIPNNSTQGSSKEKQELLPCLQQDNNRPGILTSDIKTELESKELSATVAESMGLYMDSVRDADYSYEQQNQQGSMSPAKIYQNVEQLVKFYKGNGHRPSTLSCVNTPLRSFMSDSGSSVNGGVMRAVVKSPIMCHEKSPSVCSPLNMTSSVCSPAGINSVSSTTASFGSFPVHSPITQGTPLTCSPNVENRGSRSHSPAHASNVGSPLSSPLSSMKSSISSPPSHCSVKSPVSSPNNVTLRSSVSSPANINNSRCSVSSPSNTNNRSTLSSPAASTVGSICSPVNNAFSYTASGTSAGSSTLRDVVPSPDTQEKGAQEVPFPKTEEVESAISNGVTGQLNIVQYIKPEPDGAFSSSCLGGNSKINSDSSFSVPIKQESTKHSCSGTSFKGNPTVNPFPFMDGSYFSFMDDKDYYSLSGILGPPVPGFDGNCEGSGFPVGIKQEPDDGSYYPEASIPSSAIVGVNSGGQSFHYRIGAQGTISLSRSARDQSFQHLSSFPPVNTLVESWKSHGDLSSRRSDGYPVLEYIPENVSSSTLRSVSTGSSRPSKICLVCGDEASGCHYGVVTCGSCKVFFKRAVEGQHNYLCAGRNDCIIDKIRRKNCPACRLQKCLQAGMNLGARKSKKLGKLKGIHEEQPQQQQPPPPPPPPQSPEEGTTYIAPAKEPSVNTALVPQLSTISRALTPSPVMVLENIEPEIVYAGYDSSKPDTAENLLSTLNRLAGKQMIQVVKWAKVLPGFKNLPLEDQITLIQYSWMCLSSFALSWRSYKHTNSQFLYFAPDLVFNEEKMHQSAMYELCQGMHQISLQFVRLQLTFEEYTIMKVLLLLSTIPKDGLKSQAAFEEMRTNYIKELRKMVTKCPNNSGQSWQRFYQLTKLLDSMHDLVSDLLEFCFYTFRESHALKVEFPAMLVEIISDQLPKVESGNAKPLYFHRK

GR = target: T3, GR (Homo sapiens, UniProt P04150); settings: cited from earlier work
T3 sequence (P04150 1-777): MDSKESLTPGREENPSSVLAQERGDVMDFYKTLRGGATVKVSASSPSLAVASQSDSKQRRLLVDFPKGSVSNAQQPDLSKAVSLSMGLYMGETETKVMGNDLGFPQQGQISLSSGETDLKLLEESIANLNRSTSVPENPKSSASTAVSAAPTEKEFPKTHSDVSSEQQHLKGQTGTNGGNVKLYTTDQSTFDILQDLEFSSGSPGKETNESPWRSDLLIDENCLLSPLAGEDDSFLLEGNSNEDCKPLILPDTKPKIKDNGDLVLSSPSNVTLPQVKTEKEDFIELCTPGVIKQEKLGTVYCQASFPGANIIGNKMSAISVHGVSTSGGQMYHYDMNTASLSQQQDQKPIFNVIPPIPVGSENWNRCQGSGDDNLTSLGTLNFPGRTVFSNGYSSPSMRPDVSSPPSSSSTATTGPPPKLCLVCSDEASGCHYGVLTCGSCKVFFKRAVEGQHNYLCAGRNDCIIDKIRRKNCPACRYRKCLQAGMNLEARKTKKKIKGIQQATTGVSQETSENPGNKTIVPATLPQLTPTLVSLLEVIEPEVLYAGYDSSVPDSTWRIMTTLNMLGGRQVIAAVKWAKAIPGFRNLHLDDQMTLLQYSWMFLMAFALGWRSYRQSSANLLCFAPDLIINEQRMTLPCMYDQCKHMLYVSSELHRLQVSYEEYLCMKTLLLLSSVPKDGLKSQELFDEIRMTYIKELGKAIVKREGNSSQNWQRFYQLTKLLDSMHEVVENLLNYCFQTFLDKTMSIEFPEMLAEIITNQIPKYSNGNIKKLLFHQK

[5] = at least 1.3 fold-change over vehicle, 100 nM each, 4, 8 and 12 hours combined
[6] = 50 nM GR LBD, 10 nM F-Dex, ligand 0 to 4000 nM

C[C@@H]1C[C@H]2[C@@H]3CCC4=CC(=O)C=C[C@]4(C)[C@@]3(F)[C@@H](O)C[C@]2(C)[C@@]1(O)C(=O)CO [Dex, dexamethasone]
Genome-wide GR peaks [1]: 8,448
Paclitaxel cytotoxicity (percentage cell death) (MDA-MB-231 cells; Pac 10 nM, Dex 100 nM, C297 1 μM, 96 hours): dampened paclitaxel (10 nM) cytotoxicity
Paclitaxel cytotoxicity (percentage cell death) (SUM-159-PT cells): dampened paclitaxel (10 nM) cytotoxicity
Downregulated GC-mediated genes unique to Dex treatment ([2]; FIG. 9A): 41%
Downregulated GC-mediated genes unique to Dex treatment, number ([2]; FIG. 9A): 1321
Upregulated GC-mediated genes unique to Dex treatment ([2]; FIG. 9A): 50%
Upregulated GC-mediated genes unique to Dex treatment, number ([2]; FIG. 9A): 1363
Number of downregulated genes [2, 5]: 3,202
Number of upregulated genes [2, 5]: 2,719

CC(=O)O[C@H]1C(=O)[C@@]2(C)[C@H]([C@H](OC(=O)c3ccccc3)[C@]3(O)C[C@H](OC(=O)[C@H](O)[C@@H](NC(=O)c4ccccc4)c4ccccc4)C(C)=C1C3(C)C)[C@]1(OC(C)=O)CO[C@@H]1C[C@@H]2O [Pac, paclitaxel]
Post-treatment tumor re-growth ([3]; C297 20 mg/kg/day one hour prior to pac 10 mg/kg/day, five days): significantly smaller than vehicle
Time to tumor re-growth to a 6× increase of tumor volume ([3]; C297 20 mg/kg/day one hour prior to pac 10 mg/kg/day, five days, i.p.): 27 days

CCOC[C@]12Cc3cnn(-c4ccc(F)cc4)c3C=C1CCN(S(=O)(=O)c1ccc(C(F)(F)F)cc1)C2 [C297]
Tumor re-growth with C297 monotherapy in vivo ([3]; C297/Veh versus vehicle control, FIG. 8B): not cytotoxic; also recorded: did not cause a significant delay in tumor re-growth
Cell viability with C297 treatment alone in vitro (MDA-MB-231 cells; monotherapy, SRB assay, FIG. 8A, cell line not stated): not cytotoxic; also recorded: did not reduce cell viability
Displacement of fluorescently-labeled Dex (F-Dex) from the GR LBD (GR LBD; [6]): low nM affinities
Fit of FP dose response curve (half-maximal FP signal) (GR LBD): able to fit data
Paclitaxel cytotoxicity (percentage cell death) (SUM-159-PT cells): restored cytotoxic sensitivity; also recorded: modest, but significant, relative increase in paclitaxel cytotoxicity
Genes for which both GR modulators antagonized GR induction or repression by at least 25% ([2]; 100 nM with 100 nM Dex): 3,066
Antagonized GR-regulated genes shared with the other antagonist ([2]; C297 versus Mif, 100 nM): 87%

C[C@]12CCC(=O)C=C1CC[C@@H]1[C@@H]2[C@@H](O)C[C@@]2(C)[C@H]1CC[C@]2(O)C(=O)CO [cortisol]
Fit of FP dose response curve (half-maximal FP signal) (GR LBD): able to fit data

O=c1[nH]c(=O)c(Cc2cccc(C(F)(F)F)c2)c([C@H]2CC[C@H](c3ccccc3)CC2)[nH]1 [C335]
Binding to the mineralocorticoid receptor [4]: bind the mineralocorticoid receptor
Displacement of fluorescently-labeled Dex (F-Dex) from the GR LBD (GR LBD; [6]): low nM affinities
Fit of FP dose response curve (half-maximal FP signal) (GR LBD): able to fit data

C[C@]12CCC(=O)C[C@@H]1CC[C@@H]1[C@@H]2CC[C@]2(C)[C@@H](O)CC[C@@H]12 [DHT, dihydrotestosterone]
Displacement of fluorescently-labeled Dex (F-Dex) from the GR LBD (GR LBD): did not observe GC competition

CNCC(Cl)c1ccc(OC(C)=O)cc1.Cl (stereo not drawn) [CpdA]
Displacement of H^3-Dex in cell lysates (GR): displace H^3-Dex in cell lysates
Displacement of fluorescently-labeled Dex (F-Dex) from the GR LBD (GR LBD; [6]): did not displace F-Dex from the GR LBD
Displacement of fluorescently-labeled Dex (F-Dex) from the GR LBD (GR LBD; 50 nM GR LBD, 10 nM F-Dex, ligand 0 to 4000 nM, listed as Compound A): does not bind to ligand pocket
Fit of FP dose response curve (half-maximal FP signal) (GR LBD): does not bind the GR LBD

From patent publication US12062444B2, “Methods and compositions related to triple-negative breast cancer” (THE UNIVERSITY OF CHICAGO, priority 2017, dated 2024)
